The source of these data is patent US20240417405A1, “Substituted Spiro Derivatives” (Janssen Pharmaceutica NV, priority 2021, published 2024).

Molecules are shown by their SMILES.

In assay [1] the target is T1, menin/MLL (terbium chelate-labeled menin, FITC-MBM1 peptide) (Homo sapiens, UniProt O00255, T541A).
T1 construct: Menin (a.a 1-610-6xhis tag)
T1 sequence (O00255 with tags, fused parts or gaps T541A): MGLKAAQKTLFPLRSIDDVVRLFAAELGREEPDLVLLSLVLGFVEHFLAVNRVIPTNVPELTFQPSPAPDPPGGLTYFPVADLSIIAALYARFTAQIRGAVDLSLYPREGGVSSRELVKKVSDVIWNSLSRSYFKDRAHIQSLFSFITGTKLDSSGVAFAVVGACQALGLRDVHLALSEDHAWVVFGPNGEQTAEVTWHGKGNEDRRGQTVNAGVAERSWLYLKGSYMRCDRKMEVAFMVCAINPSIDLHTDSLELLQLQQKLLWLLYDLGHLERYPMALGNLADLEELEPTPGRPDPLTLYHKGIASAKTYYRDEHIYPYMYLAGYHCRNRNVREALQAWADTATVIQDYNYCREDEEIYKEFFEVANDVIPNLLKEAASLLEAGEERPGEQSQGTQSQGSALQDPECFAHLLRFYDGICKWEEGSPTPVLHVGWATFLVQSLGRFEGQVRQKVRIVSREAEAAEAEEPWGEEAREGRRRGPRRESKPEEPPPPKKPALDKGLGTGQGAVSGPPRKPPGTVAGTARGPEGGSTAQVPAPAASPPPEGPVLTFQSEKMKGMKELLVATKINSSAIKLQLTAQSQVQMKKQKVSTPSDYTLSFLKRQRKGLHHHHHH
Nature of the assay: Menin/MLL homogenous time-resolved fluorescence (HTRF) assay. The note with it: 30 min incubation. The assay is classed as binding. A digest of the protocol:
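Terbium-labeled menin (aa 1-610, His-tagged; 200 pM) preincubated 30 min with compound, then 75 nM FITC-MBM1 peptide added for 15 min at ambient temperature in pH 7.5 Tris buffer, 0.5% DMSO. HTRF ratio 520/490 nm converted to % inhibition. IC50 came from an 11-point four-fold titration from 10 μM, floor 0.1 nM.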

The next assay deals with MOLM14 cells. In words: Proliferation assay, spheroid-like growth, MOLM14 (MLL-AF9 rearranged). The assay is classed as cell-based, human. To be noted: Homo sapiens, MOLM-14, 192 h, 8 days, confluence as measure of spheroid size, read-out: spheroid assay_OneTime MOLM14 IC50. In outline: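 Cells seeded in ultra-low attachment round-bottom wells (200 MOLM14 or 300 KO-52 per well) with compound at several concentrations, DMSO 0.3%, grown 8 days at 37° C, 5% CO2. Spheroid size taken as confluence from day-8 live-cell images; IC50 from variable-slope fit, DMSO as 0% and high-dose reference compound as 100% effect.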

The subject of another assay is KO-52 cells. In words: Proliferation assay, spheroid-like growth, KO-52 (MLL wildtype control cell line). The format is cell-based, human. The note with it: Homo sapiens, 192 h, KO-52 control cells, 8 days, confluence as measure of spheroid size; read-out: spheroid assay_OneTime KO-52 IC50. As for the experimental part:
The anti-proliferative effect of menin/MLL protein/protein interaction inhibitor test compounds was assessed in human leukemia cell lines. The cell line MOLM14 harbors a MLL translocation and expresses the MLL fusion proteins MLL-AF9, respectively, as well as the wildtype protein from the second allele. […] KO-52 was used as a control cell line containing two MLL (KMT2A) wildtype alleles in order to exclude compounds that display general cytotoxic effects.
MOLM14 cells were cultured in RPMI-1640 (Sigma Aldrich) supplemented with 10% heat-inactivated fetal bovine serum (HyClone), 2 mM L-glutamine (Sigma Aldrich) and 50 μg/ml gentamycin (Gibco). KO-52 cell lines were propagated in alpha-MEM (Sigma Aldrich) supplemented with 20% heat-inactivated fetal bovine serum (HyClone), 2 mM L-glutamine (Sigma Aldrich) and 50 μg/ml gentamycin (Gibco).
In order to assess the anti-proliferative effects, 200 MOLM14 cells, or 300 KO-52 cells were seeded in 200 μl media per well in 96-well round bottom, ultra-low attachment plates (Costar, catalogue number 7007). Cell seeding numbers were chosen based on growth curves to ensure linear growth throughout the experiment. Test compounds were added at different concentrations and the DMSO content was normalized to 0.3%. Cells were incubated for 8 days at 37° C. and 5% CO2. Spheroid like growth was measured in real-time by live-cell imaging (IncuCyteZOOM, Essenbio, 4× objective) acquiring images at day 8. Confluence (%) as a measure of spheroid size was determined using an integrated analysis tool.
In order to determine the effect of the test compounds over time, the confluence in each well as a measure of spheroid size, was calculated. Confluence of the highest dose of a reference compound was used as baseline for the LC (Low control) and the confluence of DMSO treated cells was used as 0% cytotoxicity (High Control, HC).
Absolute IC50 values were calculated as percent change in confluence as follows:
LC=Low Control: cells treated with e.g. 1 μM of the cytotoxic agent staurosporin, or e.g. cells treated with a high concentration of an alternative reference compound
GraphPad Prism (version 7.00) was used to calculate the IC50. Dose-response equation was used for the plot of % Effect vs Log 10 compound concentration with a variable slope and fixing the maximum to 100% and the minimum to 0%.

With `CC(C)[C@H]([C@H]1C[C@@H](N2C[C@H]3COC[C@H]3C2)C1)N1CC2(CCN(c3ncnnc3Oc3ccc(F)cc3-c3cncnc3C3CC3)C2)C1` (single isomer, unassigned) [Compound 14], the IC50 in assay [1] worked out at 0.1 nM; with MOLM14 cells, 2 nM; in the assay with KO-52 cells, 2110 nM.
For `COC1CCN([C@H]2C[C@@H](C(C(C)C)N3CC4(CCN(c5ncnnc5Oc5ccc(F)cc5-c5cncnc5C5CC5)C4)C3)C2)CC1` (single isomer, unassigned) [Compound 16] the same measures were 0.1 nM, 4 nM and 1880 nM.
For `CC(C)[C@H]([C@H]1C[C@@H](N2CCCC2)C1)N1CC2(CCN(c3ncnnc3Oc3ccc(F)cc3-c3cncnc3C3CC3)C2)C1` (single isomer, unassigned) [Compound 18], in that order: 0.1 nM, 2 nM and 810 nM.
In the case of `CC(C)C([C@H]1C[C@@H](N2CC3(COC3)C2)C1)N1CC2(CCN(c3ncnnc3Oc3ccc(F)cc3-c3cncnc3C3CC3)C2)C1` (single isomer, unassigned) [Compound 20], the values for the IC50 (in assay [1]; in the assay with MOLM14 cells; in the assay with KO-52 cells) were 0.1 nM, 5 nM and 4300 nM, respectively.
For `CC(C)C([C@H]1C[C@H](N2CC3(COC3)C2)C1)N1CC2(CCN(c3ncnnc3Oc3ccc(F)cc3-c3cncnc3C3CC3)C2)C1` (single isomer, unassigned) [Compound 21] the same measures were 0.1 nM, 52 nM and 4610 nM.
For `CC(C)[C@H]([C@H]1C[C@@H](N2CCC(O)CC2)C1)N1CC2(CCN(c3ncnnc3Oc3ccc(F)cc3-c3cncnc3C3CC3)C2)C1` (single isomer, unassigned) [Compound 22] the same measures were 0.1 nM, 3 nM and 10800 nM.
For `CC(C)[C@@H]([C@H]1C[C@@H](N2CCC(S(C)(=O)=O)CC2)C1)N1CC2(CCN(c3ncnnc3Oc3ccc(F)cc3-c3cccnc3C3CC3)C2)C1` (single isomer, unassigned) [Compound 23] the same measures were 0.3 nM, 9 nM and 1060 nM.
With `CC(C)[C@H]([C@H]1C[C@@H](N2CCC(S(C)(=O)=O)CC2)C1)N1CC2(CCN(c3ncnnc3Oc3ccc(F)cc3-c3ncccc3C3CC3)C2)C1` (single isomer, unassigned) [Compound 25], the IC50 in assay [1] was found to be 0.1 nM; in the assay on MOLM14 cells, 85 nM; in the assay with KO-52 cells, 5570 nM.
For `CC(C)[C@@H]([C@H]1C[C@@H](N2CCC(S(C)(=O)=O)CC2)C1)N1CC2(CCN(c3ncnnc3Oc3ccc(F)cc3-c3ncccc3C3CC3)C2)C1` (single isomer, unassigned) [Compound 26], in that order: 6.2 nM, above 940 nM and above 15000 nM.
For `CC(C)[C@H]([C@H]1C[C@@H](NC(=O)C2CC2)C1)N1CC2(CCN(c3ncnnc3Oc3ccc(F)cc3-c3ncccc3C3CC3)C2)C1` (single isomer, unassigned) [Compound 27], in that order: 0.1 nM, 36 nM and 5560 nM.
Regarding `CC(C)[C@@H](C1CCN(CC2COC2)CC1)N1CC2(CCN(c3ncnnc3Oc3ccc(F)cc3-c3cncnc3C3CC3)C2)C1` (single isomer, unassigned) [Compound 29], the values for the IC50 (in assay [1]; in the assay on MOLM14 cells; with KO-52 cells) were 1.8 nM, 220 nM and above 15000 nM, respectively.
For `CC(C)[C@H]([C@H]1C[C@@H](N2CCC(F)C(O)C2)C1)N1CC2(CCN(c3ncnnc3Oc3ccc(F)cc3-c3cncnc3C3CC3)C2)C1` (single isomer, unassigned) [Compound 30] the same measures were 0.3 nM, 29 nM and 2580 nM.
As to `CC(C)[C@H]([C@H]1C[C@H](N2CCC(F)C(O)C2)C1)N1CC2(CCN(c3ncnnc3Oc3ccc(F)cc3-c3cncnc3C3CC3)C2)C1` (single isomer, unassigned) [Compound 31], the values for the IC50 (in assay [1]; in the assay with MOLM14 cells; in the assay with KO-52 cells) were 0.3 nM, 7 nM and 2410 nM, respectively.
Consider `CC(C)[C@H]([C@H]1C[C@H](N2CCC(O)C(F)C2)C1)N1CC2(CCN(c3ncnnc3Oc3ccc(F)cc3-c3cncnc3C3CC3)C2)C1` (single isomer, unassigned) [Compound 33], for which the IC50 is 0.3 nM in assay [1], 7 nM in the assay on MOLM14 cells and 2490 nM in the assay on KO-52 cells.
`CC(=O)N1CCN([C@H]2C[C@@H]([C@@H](C(C)C)N3CC4(CCN(c5ncnnc5Oc5ccc(F)cc5-c5cncnc5C5CC5)C4)C3)C2)CC1` (single isomer, unassigned) [Compound 34]: the figures for the IC50 (in assay [1]; in the assay on MOLM14 cells; with KO-52 cells) were 0.5 nM, 36 nM and 5140 nM, respectively.
For `CC(=O)N1CCN([C@H]2C[C@H]([C@@H](C(C)C)N3CC4(CCN(c5ncnnc5Oc5ccc(F)cc5-c5cncnc5C5CC5)C4)C3)C2)CC1` (single isomer, unassigned) [Compound 35], in that order: 1.3 nM, 340 nM and above 15000 nM.
With `CC(C)[C@H]([C@H]1C[C@@H](N2CCN(C(=O)N(C)C)CC2)C1)N1CC2(CCN(c3ncnnc3Oc3ccc(F)cc3-c3cncnc3C3CC3)C2)C1` (single isomer, unassigned) [Compound 36], the half-inhibitory concentration (IC50) in assay [1] was 0.2 nM; in the assay with MOLM14 cells, 10 nM; in the assay with KO-52 cells, 3050 nM.
For `COCCN(C)[C@H]1C[C@@H]([C@@H](C(C)C)N2CC3(CCN(c4ncnnc4Oc4ccc(F)cc4-c4cncnc4C4CC4)C3)C2)C1` (single isomer, unassigned) [Compound 38], in that order: 0.2 nM, 6 nM and above 15000 nM.
For `CC(C)[C@H]([C@H]1C[C@@H](NC2CC2)C1)N1CC2(CCN(c3ncnnc3Oc3ccc(F)cc3-c3cncnc3C3CC3)C2)C1` (single isomer, unassigned) [Compound 39], in that order: 0.1 nM, 7 nM and 1480 nM.
For `CC(C)[C@H]([C@H]1C[C@@H](N2CC[C@@H](O)C23CC3)C1)N1CC2(CCN(c3ncnnc3Oc3ccc(F)cc3-c3cncnc3C3CC3)C2)C1` (single isomer, unassigned) [Compound 40] the same measures were 0.2 nM, 10 nM and 500 nM.
For `CC(C)[C@H]([C@H]1C[C@@H](N2CC[C@H](O)C23CC3)C1)N1CC2(CCN(c3ncnnc3Oc3ccc(F)cc3-c3cncnc3C3CC3)C2)C1` (single isomer, unassigned) [Compound 41], the IC50 in assay [1] is 0.2 nM; in the assay with MOLM14 cells, 12 nM; in the assay on KO-52 cells, above 15000 nM.
